US4211866A, “Acyl derivatives of 2-[3-(2-chloroethyl)-3-nitrosoureido]-2-deoxy-D-glucopyranose” (Nippon Shinyaku Co., Ltd., priority 1977, dated 1980)

Legend:
Acute toxicities in mice = assay type: in vivo; conditions: mice (male, ddy), intraperitoneal single dose, 7 days survival
Description: Acute toxicities in mice (male, ddy).
*Intraperitoneal administration of a single dose, 7 days survival.

[1] = test system: mouse lymphatic leukemia P-388; assay: Antileukemic activity against Leukemia P-388 in mice; assay type: in vivo, mouse (SLC-BDF1, male); conditions: intraperitoneal, every 24 hours, 9 doses; for Median survival time: control 10.2 days; for Increase of Life Span: vs control
Protocol: The antitumor activity and acute toxicity of the acyl derivatives of 2-[3-(2-chloroethyl)-3-nitrosoureido]-2-deoxy-D-glucopyranose according to this invention can be conveniently observed in recognized animal models. 1,000,000 cells of mouse lymphatic leukemia P-388 were intraperitoneally transplanted into each mouse (SLC-BDF1, male, 18 g.congruent.1 g, 5 weeks old). After 24 hours and thereafter at intervals of 24 hours, a predetermined amount of an acyl derivative of 2-[3-(2-chloroethyl)-3-nitro-soureido]-2-deoxy-D-glucopyramose was intraperitoneally administered for a total of 9 doses. The mice were reared under observation.

Molecule | LD50 (Acute toxicities in mice) [mg/kg] | Median survival time ([1]; 0.125 mg/Kg/dose) [days] | Increase of Life Span ([1]; 0.125 mg/Kg/dose) [%] | Median survival time ([1]; 0.25 mg/Kg/dose) [days] | Increase of Life Span ([1]; 0.25 mg/Kg/dose) [%] | Median survival time ([1]; 0.5 mg/Kg/dose) [days] | Increase of Life Span ([1]; 0.5 mg/Kg/dose) [%] | Median survival time ([1]; 1.0 mg/Kg/dose) [days] | Increase of Life Span ([1]; 1.0 mg/Kg/dose) [%] | LD50 at 168 h (Acute toxicities in mice; mouse, in vivo, ip) [mg/kg]
2-[3-(2-chloroethyl)-3-nitrosoureido]-2-deoxy-D-glucopyranose dipalmitate | > 800 | 16.5 | 61.8 | 17.8 | 74.5 | 19.3 | 89.2 | 21.0 | 105.9 | –
2-[3-(2-chloroethyl)-3-nitrosoureido]-2-deoxy-D-glucopyranose monopalmitate | 162.5 | 14.8 | 45.1 | 15.5 | 52.0 | 16.3 | 59.8 | 17.5 | 71.6 | –
2-[3-(2-chloroethyl-3-nitrosoureidol]-2-deoxy-D-glucopyranose tripalmitate | > 800 | – | – | – | – | – | – | – | – | –
O=NN(CCCl)C(=O)N[C@H]1C(O)O[C@H](CO)[C@@H](O)[C@@H]1O (stereo partly drawn) [Chlorozotocin, 2-[3-(2-Chloroethyl)-3-nitrosoureido]-2-deoxy-D-glucopyranose] | – | 12.3 | 20.6 | 14.5 | 42.2 | 16.3 | 59.8 | 18.8 | 84.3 | 45 to 47
